This data set is described as follows: Metabolic phenotype (body weight, metabolic organ weights) after LGI3 antagonist peptide injection. It counts as in vivo, mouse. As for the experimental part:
LGI3 P34, made with a mouse LGI3 antagonist peptide, is a 15mer synthetic peptide containing amino acids (aa) […] (DEGRQKFVRFQELAV (SEQ ID NO:3)) of mouse Lgi3. The synthetic LGI3 peptide was dissolved in PBS and sterilized by filtration. PBS injection was used as a control for mouse experiments. All peptides were synthesized by Peptron (Seoul, Korea). Apoe^−/− mice fed a high fat diet for 16 weeks were intraperitoneally injected with PBS or the LGI3 antagonist peptide twice a week for the last 5 weeks.
Statistical analysis was performed using InStat. A two-sided Mann-Whitney U-test was used for comparison between two groups, and one-way ANOVA was used for comparisons among three or more groups. All data is presented as mean s.e.m, and P-values of ≤0.05 were considered statistically significant.

Where no end group is shown, it is not given here.

Here are results for one sequence from patent US12188947B2, “Marker for diagnosing atherosclerosis severity, and diagnostic method using same” (EWHA UNIVERSITY—INDUSTRY COLLABORATION FOUNDATION, priority 2018, dated 2025).

For the setting “Apoe −/− mice, high fat diet 16 weeks, intraperitoneal injection for the last 5 weeks, n=9, PBS control 1.689±0.43, P=0.84”, “DEGRQKFVRFQELAV [LGI3 P34, DEGRQKFVRFQELAV]” registered an epididymal fat weight of 1.58±0.51%. This sequence came in with a body weight (Apoe −/− mice, high fat diet 16 weeks, intraperitoneal injection for the last 5 weeks, n=9, PBS control 39.22±3.51, P=0.536) of 38.08 ± 2.19 g. In addition, the “metabolic phenotype (in words)” value (body weight, WAT, spleen and liver weight to body weight versus control mice, FIG. 6) is on record as “not changed”.
